Assay results reported in patent US20160297851A1, “BROAD SPECTRUM […]” (priority 2012, published 2016).
In brackets after ≈: the same amount, converted by molar mass. Read-outs that look alike come from different tables or passages of the source.

Key:
Staphylococcus aureus = type: cell-based; conditions: several values = heterogeneity within different strains
Helicobacter pylori SS1 = test: microbe, parasite or virus in culture; type: cell-based; conditions: amount for a 1000-fold decrease in viable cells
Rhodococcus erythropolis = test: microbe, parasite or virus in culture; type: cell-based
[1] = system: Corynebacterium efficiens DSM 44549; test: microbe, parasite or virus in culture; type: cell-based
Lactococcus lactis = test: microbe, parasite or virus in culture; type: cell-based; conditions: several values = different isolates/subspecies
[2] = molecular target: truncated wild type E. coli SPase (Escherichia coli, UniProt P00803); test: Equilibrium binding, arylomycin fluorescence; conditions: micelles; average of three independent experiments
[3] = system: wild type P. aeruginosa PAO1; test: microbe, parasite or virus in culture; type: cell-based, Pseudomonas aeruginosa
human HeLa 229 cells = conditions: none observed up to the highest concentration examined
Clostridium difficile = test: microbe, parasite or virus in culture; type: cell-based; conditions: Clostridioides difficile
[4] = system: Lactobacillus plantarum ATCC 8014; test: microbe, parasite or virus in culture; type: cell-based; conditions: Lactiplantibacillus plantarum, ATCC8014
S. aureus Rosenbach 328 = test: microbe, parasite or virus in culture; type: cell-based; conditions: Staphylococcus aureus; MRSA strain
Clostridium perfringens = test: microbe, parasite or virus in culture; type: cell-based
[5] = system: wild type S. epidermidis RP62A; test: microbe, parasite or virus in culture; type: cell-based, Staphylococcus epidermidis; conditions: for MIC: Sensitive strain (SPase without the resistance-conferring Pro)
[6] = system: Brevibacillus brevis ATCC 8246; test: microbe, parasite or virus in culture; type: cell-based; conditions: ATCC8246
[7] = system: Rhodococcus opacus DSM 1069; test: microbe, parasite or virus in culture; type: cell-based
[8] = system: Streptococcus pneumoniae R800; test: microbe, parasite or virus in culture; type: cell-based
[9] = system: Lactobacillus gasseri ATCC 19992; test: microbe, parasite or virus in culture; type: cell-based; conditions: ATCC19992
[10] = system: Streptococcus agalactiae COH-1; test: microbe, parasite or virus in culture; type: cell-based; conditions: Streptococcus agalactiae, COH1
[11] = system: Corynebacterium glutamicum DSM 44475; test: microbe, parasite or virus in culture; type: cell-based; conditions: DSM44475
Bacteroides fragilis = test: microbe, parasite or virus in culture; type: cell-based
[12] = system: E. coli strains harboring the indicated amino acid at SPase residue 84; test: microbe, parasite or virus in culture; type: cell-based; conditions: Escherichia coli
[13] = system: E. coli and P. aeruginosa serine mutants; test: MIC after permeabilizing with polymyxin B nonapeptide; type: cell-based
Enterococcus faecalis = test: microbe, parasite or virus in culture; type: cell-based
Prevotella copris = test: microbe, parasite or virus in culture; type: cell-based
[14] = system: lepB(P84L) P. aeruginosa PAO1; test: microbe, parasite or virus in culture; type: cell-based, Pseudomonas aeruginosa
[15] = system: lepB(P84L) E. coli MG1655; test: microbe, parasite or virus in culture; type: cell-based, Escherichia coli; conditions: Table 3, P3 position derivatives; unit not given
[16] = system: spsB(S29P) S. epidermidis RP62A; test: microbe, parasite or virus in culture; type: cell-based, Staphylococcus epidermidis
[17] = system: Staphylococcus haemolyticus; test: microbe, parasite or virus in culture; type: cell-based
Chlamydia trachomatis = test: microbe, parasite or virus in culture; type: cell-based; conditions: eradication from human HeLa 229 cells, 24 hours
Yersinia pestis Kim+6 = test: microbe, parasite or virus in culture; type: cell-based
wild type S. aureus 8325 = test: microbe, parasite or virus in culture; type: cell-based, Staphylococcus aureus
[18] = molecular target: P84S variant of truncated E. coli SPase (Escherichia coli, UniProt P00803, P84S); test: Equilibrium binding, arylomycin fluorescence; conditions: micelles; average of three independent experiments
[19] = system: S. epidermidis PAS9002 (SPase S31P); type: cell-based, Staphylococcus epidermidis; conditions: Ser to Pro mutation at position 31 of SpsIB
S. aureus COL = test: microbe, parasite or virus in culture; type: cell-based; conditions: Staphylococcus aureus
[20] = system: Streptococcus pyogenes M1-5448; test: microbe, parasite or virus in culture; type: cell-based
[21] = system: lepB(P29S) S. aureus 8325; test: microbe, parasite or virus in culture; type: cell-based, Staphylococcus aureus; conditions: Table 3, P3 position derivatives; unit not given
[22] = system: Klebsiella pneumoniae ATCC 43816; test: microbe, parasite or virus in culture; type: cell-based; conditions: ATCC43816
[23] = Staphylococcus epidermidis, read-out: MIC
[24] = Table 3, P3 position derivatives, unit not given

P84S variant of truncated E. coli SPase, sequence (P00803 76-324, looked up, stated change not applied): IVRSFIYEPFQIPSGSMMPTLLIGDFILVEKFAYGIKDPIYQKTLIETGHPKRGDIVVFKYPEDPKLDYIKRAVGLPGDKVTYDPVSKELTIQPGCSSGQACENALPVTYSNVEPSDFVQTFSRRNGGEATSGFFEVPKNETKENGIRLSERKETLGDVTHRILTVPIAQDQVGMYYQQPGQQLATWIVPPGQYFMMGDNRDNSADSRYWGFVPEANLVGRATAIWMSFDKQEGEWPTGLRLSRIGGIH
truncated wild type E. coli SPase, sequence (P00803 76-324, looked up, natural form): as the sequence (P00803 76-324, looked up, stated change not applied) above

## CCCCCCCCCCCCCCCC(=O)N(C)[C@H](CO)C(=O)N[C@H](C)C(=O)NCC(=O)N(C)[C@@H]1C(=O)N[C@@H](C)C(=O)N[C@H](C(=O)O)Cc2ccc(O)c(c2)-c2cc1ccc2O [Arylomycin C16, arylomycin C16]
Staphylococcus aureus
  MIC: 16 to 32 µg/mL
Helicobacter pylori SS1; Helicobacter pylori, SS1, read-out: MIC
  MIC: 4 µg/mL (≈ 4.54 µM)
Helicobacter pylori SS1
  MIC: 4 µg/mL (≈ 4.54 µM)
Rhodococcus erythropolis
  MIC: 16 µg/mL (≈ 18.2 µM)
[1]
  MIC: 16 µg/mL (≈ 18.2 µM)
Lactococcus lactis
  MIC: 16 µg/mL (≈ 18.2 µM)
[2]
  Kd: 979 ± 69 nM
[3]; Pseudomonas aeruginosa, PAO1, Resistant strain (wild type), read-out: MIC
  MIC: > 64 µg/mL
[3]; Resistant strain (wild type)
  MIC: >128 µg/mL
Human HeLa 229 cells
  concentration with adverse effects on the human cells: > 20000 ng/mL
Clostridium difficile
  MIC: > 16 µg/mL
[4]
  MIC: > 128 µg/mL
S. aureus Rosenbach 328
  MIC: 25 µg/mL (≈ 28.4 µM)
Clostridium perfringens
  MIC: > 16 µg/mL
[5]
  MIC: 0.25 µg/mL (≈ 0.284 µM)
[5]; listed as arylomycin C16
  MIC: 0.25 µg/mL (≈ 0.284 µM)
[5]; [23]
  MIC: 0.5 µg/mL (≈ 0.567 µM)
[5]; [24]
  minimal inhibitory concentration (MIC): 0.25
[6]
  MIC: > 64 µg/mL
[7]
  MIC: 2 µg/mL (≈ 2.27 µM)
[7]; Rhodococcus opacus, DSM1069, read-out: MIC
  MIC: 1 µg/mL (≈ 1.13 µM)
[8]
  MIC: 16 µg/mL (≈ 18.2 µM)
[8]; Streptococcus pneumoniae, R800, read-out: MIC
  MIC: 8 µg/mL (≈ 9.08 µM)
[8]; listed as arylomycin A-C16
  MIC: 8 µg/mL (≈ 9.08 µM)
[9]
  MIC: > 128 µg/mL
[10]
  MIC: > 128 µg/mL
[11]
  MIC: 2 µg/mL (≈ 2.27 µM)
Bacteroides fragilis
  MIC: > 16 µg/mL
[12]; 'Phe or His' variant (temperature sensitive)
  MIC: 2 µg/mL (≈ 2.27 µM)
[12]; His variant (temperature sensitive)
  MIC: 4 µg/mL (≈ 4.54 µM)
[12]; Pro at SPase residue 84
  MIC: > 256 µg/mL
[12]; all of the other amino acids at residue 84
  MIC: ≤ 16 µg/mL
[13]
  fold decrease of MIC on permeabilization: ≤ 4 fold
Enterococcus faecalis
  MIC: > 64 µg/mL
Prevotella copris
  MIC: > 16 µg/mL
[14]; Pseudomonas aeruginosa, PAO1, Sensitive (genetically sensitized) strain, read-out: MIC
  MIC: 8 µg/mL
[14]; [24]
  minimal inhibitory concentration (MIC): 4
[15]
  minimal inhibitory concentration (MIC): 2
[16]; Ser to Pro mutation at position 29 of SpsIB
  fold elevated MIC compared to the wild type strain: 32 fold
[16]; [23]
  MIC: 8 µg/mL (≈ 9.08 µM)
[17]
  MIC: 2 µg/mL (≈ 2.27 µM)
Chlamydia trachomatis
  MIC: 6 µg/mL (≈ 6.81 µM)
Yersinia pestis Kim+6
  MIC: 4 µg/mL (≈ 4.54 µM)
Wild type S. aureus 8325
  activity in words: no activity
Wild type S. aureus 8325; Staphylococcus aureus, Resistant strain (wild type), read-out: MIC
  MIC: > 64 µg/mL
[18]
  Kd: 39 ± 15 nM
[19]
  fold elevated MIC compared to the wild type strain: greater than 256 fold
S. aureus COL
  MIC: 12 µg/mL (≈ 13.6 µM)
[20]
  MIC: 16 µg/mL (≈ 18.2 µM)
[20]; Streptococcus pyogenes, M15448, read-out: MIC
  MIC: 8 µg/mL (≈ 9.08 µM)
[20]; listed as arylomycin A-C16
  MIC: 8 µg/mL (≈ 9.08 µM)
[21]
  minimal inhibitory concentration (MIC): 4
[22]
  MIC: > 128 µg/mL
